The text below walks through data of ChEMBL document CHEMBL5154864, “Design, synthesis and biological evaluation of novel nitric oxide donors with antioxidative activity” (Eur J Med Chem, 2022).

The source made the active and inactive calls. No cut-off for these calls is given here.

In data set [1] the test system is HUVEC. In words: Effect on intracellular NO production in HUVEC cells assessed as increase in NO level at 5 uM incubated for 24 hrs by inverted microscopic analysis. It counts as functional, cell-based. To be noted: Homo sapiens.
Data set [2] has as its system HUVEC. In words: Cytotoxicity against HUVEC cells assessed as reduction in cell viability at 5 uM in absence of TBHP by CCK8 assay. In kind it is toxicity, cell-based. To be noted: human. Background: Formazan colour is commonly taken as a measure of viable cells.
Data set [3] deals with HUVEC. Kind of data set: Cytoprotective activity against TBHP induced oxidative stress in human HUVEC cells assessed as increase in cell viability at 5 uM by CCK8 assay. It counts as functional, cell-based.
A further data set relates to Thoracic aorta. In words: Vasodilation activity in C57BL/6 mouse thoracic aorta assessed as relaxation of phenylephrine-induced contractions at 5 to 50 uM. It counts as functional, tissue-based. To be noted: dose 5-50 µM.
The test system of data set [4] is HUVEC. Kind of data set: Induction of oxidative stress in HUVEC cells assessed as increase in intracellular ROS level at 5 uM incubated for 24 hrs by DCHF staining based inverted microscopic analysis. It counts as functional, cell-based. To be noted: Homo sapiens.
For data set [5], the system named is Mus musculus. In words: Antihypertensive activity against C57BL/6 mouse model of Ang II-induced hypertension assessed as reduction in thoracic arterial wall thickness at 100 mg/kg/day, ip measured after 4 weeks. It counts as functional, organism-based.
The subject of data set [6] is Mus musculus. In words: Antihypertensive activity against C57BL/6 mouse model of Ang II-induced hypertension assessed as reduction in vascular ROS level at 100 mg/kg/day, ip measured after 4 weeks. It counts as functional, organism-based.
For data set [7], the system named is Mus musculus. Kind of data set: Antihypertensive activity against C57BL/6 mouse model of Ang II-induced hypertension assessed as reduction in diastolic blood pressure at 100 mg/kg/day, ip measured after 4 weeks. In kind it is functional, organism-based. Also on record: scale not given: the % may be the effect or the level left.
Data set [8] relates to Mus musculus. In words: Antihypertensive activity against C57BL/6 mouse model of Ang II-induced hypertension assessed as reduction in systolic blood pressure at 100 mg/kg/day, ip measured after 4 weeks. It counts as functional, organism-based. Also on record: scale not given: the % may be the effect or the level left.
For data set [9], the system named is Mus musculus. In words: Reversal of Ang II infusion-induced smooth muscle dysfunction in C57BL/6 mouse model assessed as relaxation of SNP-stimulated vasodilation at 100 mg/kg/day, ip measured after 4 weeks. It counts as functional, organism-based.
Data set [10] has as its system Mus musculus. In words: Reversal of Ang II infusion-induced endothelial dysfunction in C57BL/6 mouse model assessed as relaxation of ACh-stimulated vasodilation at 100 mg/kg/day, ip measured after 4 weeks. It counts as functional, organism-based.

As for `CC1(C)N(O)C(c2ccc(C(=O)O)cc2)=[N+]([O-])C1(C)C`, the outcome in the data set with HUVEC [1] was Active. Further, the Activity result with HUVEC [2] is “Non-Toxic”.
As to `CC1(C)CC(O)CC(C)(C)N1[O]`, the outcome in the data set with HUVEC [1] and with HUVEC [3] was Active.
For `O=[N+]([O-])O[C@@H]1CO[C@H]2[C@@H]1OC[C@@H]2O`, the outcome with HUVEC [1], in the data set with Thoracic aorta and with HUVEC [4] was Active.
Regarding “2-(2'-bromo-5'-hydroxylphenyl)-4,4,5,5-tetramethylimidazoline-1-oxyl-3-oxide”, the outcome with HUVEC [1] was Active.
With “2-(2'-bromo-6'-hydroxylphenyl)-4,4,5,5-tetramethylimidazoline-1-oxyl-3-oxide”, the result with HUVEC [1] was Active.
With “2-(2'-hydroxylphenyl)-4,4,5,5-tetramethyl-imidazoline-1-oxyl-3-oxide”, the outcome with HUVEC [1] was Active.
On the same count and under the same terms, next, “2-(2-hydroxynaphthalen-1-yl)-4,4,5,5-tetramethylimidazoline-1-oxyl-3-oxide”: “Active”; “2-(3'-bromo-4'-hydroxylphenyl)-4,4,5,5-tetramethylimidazoline-1-oxyl-3-oxide”: “Active”.
For the compound “2-(4-hydroxy-3-methoxyphenyl)-4,4,5,5-tetramethylimidazoline-1-oxyl-3-oxide”, the result in the data set on HUVEC [1] and in the data set with HUVEC [3] was Active.
As to “(3S,6R)-6-(nitrooxy)hexahydrofuro[3,2-b]furan-3-yl 2-(2-(4,5-dihydro-4,4,5,5-tetramethyl-3-oxido-1H-imidazole-3-ium-1-oxyl-2-yl)phenoxy)acetate”, the outcome in the data set on HUVEC [1] and in the data set on HUVEC [3] was Active.
Take “(3S,6R)-6-(nitrooxy)hexahydrofuro[3,2-b]furan-3-yl 2-(2-bromo-4-(4,5-dihydro-4,4,5,5-tetramethyl-3-oxido-1H-imidazole-3-ium-1-oxyl-2-yl)phenoxy)acetate”: the outcome with HUVEC [1] and in the data set on HUVEC [3] was Active.
Regarding “(3S,6R)-6-(nitrooxy)hexahydrofuro[3,2-b]furan-3-yl 2-(4-bromo-3-(4,5-dihydro-4,4,5,5-tetramethyl-3-oxido-1H-imidazole-3-ium-1-oxyl-2-yl)phenoxy)acetate”, the result with HUVEC [1], in the data set on Thoracic aorta and in the data set with HUVEC [3] was Active.
In the case of “(3S,6R)-6-(nitrooxy)hexahydrofuro[3,2-b]furan-3-yl 3-(4,5-dihydro-4,4,5,5-tetramethyl-3-oxido-1H-imidazole-3-ium-1-oxyl-2-yl)benzoate”, the outcome in the data set on HUVEC [1] and with HUVEC [4] was Active.
As for “(3S,6R)-6-(nitrooxy)hexahydrofuro[3,2-b]furan-3-yl 4-(4,5-dihydro-4,4,5,5-tetramethyl-3-oxido-1H-imidazole-3-ium-1-oxyl-2-yl)benzoate”, the result with HUVEC [1] and in the data set with HUVEC [4] was Active.
For “(3S,6R)-6-(nitrooxy)hexahydrofuro[3,2-b]furan-3-yl (4-(4,5-dihydro-4,4,5,5-tetramethyl-3-oxido-1H-imidazole-3-ium-1-oxyl-2-yl)naphthalen-2-yl)benzoyl)-D-prolinate”, the outcome with HUVEC [1], in the data set with Mus musculus [5], in the data set on Thoracic aorta, in the data set with Mus musculus [6], with Mus musculus [9] and with Mus musculus [10] was Active. For the same compound, the outcome in the data set on HUVEC [3] was Active. Moreover, the Activity was 14.3% in the data set with Mus musculus [7] and 14.8% in the data set with Mus musculus [8].
In the case of “(3S,6R)-6-(nitrooxy)hexahydrofuro[3,2-b]furan-3-yl (4-(4,5-dihydro-4,4,5,5-tetramethyl-3-oxido-1H-imidazole-3-ium-1-oxyl-2-yl)naphthalen-2-yl)benzoyl)-L-prolinate”, the outcome in the data set on HUVEC [1], in the data set with HUVEC [4] and in the data set with HUVEC [3] was Active.
